{
  "source": "paper PMC6158189",
  "about": "“A pharmacological probe identifies cystathionine β-synthase as a new negative regulator for ferroptosis” (Cell Death & Disease, 2018)",
  "key": {"[1]": {"target": "T1, hCBS-413 (Homo sapiens, UniProt P35520)", "T1 construct": "hCBS-413 (a C-terminal truncated hCBS 1–413); GST (N); made in house; host or cells: E. coli BL21", "T1 sequence (P35520 1-413)": "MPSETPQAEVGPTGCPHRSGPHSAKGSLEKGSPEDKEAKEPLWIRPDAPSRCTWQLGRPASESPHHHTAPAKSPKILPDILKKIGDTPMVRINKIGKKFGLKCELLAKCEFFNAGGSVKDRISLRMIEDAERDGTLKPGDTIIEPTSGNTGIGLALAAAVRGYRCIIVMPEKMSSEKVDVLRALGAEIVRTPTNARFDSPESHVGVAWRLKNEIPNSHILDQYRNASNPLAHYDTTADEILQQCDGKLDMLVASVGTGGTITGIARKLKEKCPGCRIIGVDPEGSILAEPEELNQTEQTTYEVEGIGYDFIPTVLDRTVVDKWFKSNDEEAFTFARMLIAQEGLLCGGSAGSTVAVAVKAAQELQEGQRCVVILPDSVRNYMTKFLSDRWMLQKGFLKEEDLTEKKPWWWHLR", "test": "purified hCBS-413 enzyme assay (192-tandem-well plate, H2S detected with DTNB)", "type": "biochemical", "procedure": "Fig. 1 CH004 inhibits the activity of hCBS in the in vitro purified enzyme assays under different assay conditions. a A scheme for the cascade enzymatic reactions catalyzed by CBS or CSE. Cth, cystathionine. b, c Inhibitory effects of CH004 on the activity of hCBS-413 (b) or hCSE (c). The enzyme activities were monitored for various concentrations of CH004 under the standard conditions (50 mM Tris-HCl, pH 8.6; “Materials and Methods” section). The result is shown as percentages of the control (DMSO, 100%). The data are shown as means ± SDS (n = 3). d The dose-dependent inhibition of CH004 on the hCBS-413 activity was measured by the tandem-well-based assay under the standard conditions except using 50 mM Hepes buffer (pH 7.4) instead of 50 mM Tris-HCl (pH 8.6). Means ± SDs (n = 3). e The dose-dependent inhibition of CH004 on the CBS activity measured by methylene blue method. The CBS enzyme assay was performed with a 50 μl assay buffer in an Eppendorf tube under the standard assay conditions for the 192-tandem-well based assay, i.e., 50 μl 50 mM Tris-HCl buffer (pH 8.6) containing 150 nM hCBS-FL, 200 μM S-adenosyl-L-methionine, 4 mM L-Cys and 4 mM D,L-Hcys, in the presence of 0 (DMSO control), 0.01, 0.5, 1, 5, 10 or 100 μM CH004. After 80 min, the assay was stopped by added 10 μL 10% ZnAC and the generated H2S was quantified by N,N-dimethyl-p-phenylenediamine to give an absorbance at 670 nm (for details, see Materials and Methods section; ref. [53]).\n(§1) The IC50 values of CH004 for hCBS-413, hCBS-413 mutants, hCBS-FL, hCSE or hDDC were determined according to the standard assay conditions otherwise indicated.\nTable S2. Inhibitory effects of CH004 on hCBS WT and mutants."}, "[2]": {"test_system": "Huh7 cells", "test": "cell viability (CellTiter 96 Aqueous One)", "type": "cell-based", "procedure": "(§2) To measure cell viability and cytotoxicity, HepG2, HEK293T, Huh-7, H22, Panc-28, HCT116 and MDA-MB-231 cells were seeded at a density of ~ 2 × 10^4 cells per well in 96-well plates (Coring, NY, USA) for one day, followed by incubation with DMSO or various concentrations of tested compound for indicated times. Then, the cells were collected to measure the cell viability using the CellTiter 96® Aqueous One Solution Cell Proliferation Assay (Promega, G3581) according to the standard protocols.\n(§3) Figure S11. The effects of CH004 on cell viability in various types of cancer cell lines. (A) Dose-dependent curves of CH004 on cell viability of HepG2 cells (▲), HEK293T cells (○). Percentages of cell viability of CH004 obtained in Figure 4a were fitted to the non-linear equation using GraphPad Prism 5 to get the IC50 values of CH004 in respective cell lines. Means ± SDs (n=3). […] (B) MDA-MB-231 (breast cancer cell cline), HCT116 (colon cancer), Panc-28 cells (pancreas cancer), Huh7 cells (hepatocellular carcinoma) and H22 (mouse liver cancer) were incubated with DMSO (control) or indicated concentrations of CH004 for 24 h in a 96-well plate before assessing cell viability using the CellTiter96® Aqueous One Solution Cell Proliferation Assay (Promega). The data are shown as percentages of control (DMSO, 100%). Means ± SDs (n=3). (C) The dose-dependent curve of CH004 on cell viability. Percentages of cell viability obtained in B were fitted to the non-linear equation using GraphPad Prism 5 to get the IC50 values of CH004 in respective cell lines. […] The experiments were independently repeated twice in triplicates and a representative experiment is shown."}, "[3]": {"test_system": "HCT116 cells", "test": "cell viability (CellTiter 96 Aqueous One)", "type": "cell-based", "procedure": "as §2, §3"}, "[4]": {"test_system": "MDA-MB-231 cells", "test": "cell viability (CellTiter 96 Aqueous One)", "type": "cell-based", "settings": "Homo sapiens, MDA-MB-231, 24 h", "procedure": "as §2, §3"}, "[5]": {"test_system": "Panc-28 cells", "test": "cell viability (CellTiter 96 Aqueous One)", "type": "cell-based", "settings": "24 h", "procedure": "as §2, §3"}, "[6]": {"target": "T2, human dopa decarboxylase (hDDC) (Homo sapiens, UniProt P20711)", "T2 construct": "made in house", "T2 sequence (P20711 whole entry)": "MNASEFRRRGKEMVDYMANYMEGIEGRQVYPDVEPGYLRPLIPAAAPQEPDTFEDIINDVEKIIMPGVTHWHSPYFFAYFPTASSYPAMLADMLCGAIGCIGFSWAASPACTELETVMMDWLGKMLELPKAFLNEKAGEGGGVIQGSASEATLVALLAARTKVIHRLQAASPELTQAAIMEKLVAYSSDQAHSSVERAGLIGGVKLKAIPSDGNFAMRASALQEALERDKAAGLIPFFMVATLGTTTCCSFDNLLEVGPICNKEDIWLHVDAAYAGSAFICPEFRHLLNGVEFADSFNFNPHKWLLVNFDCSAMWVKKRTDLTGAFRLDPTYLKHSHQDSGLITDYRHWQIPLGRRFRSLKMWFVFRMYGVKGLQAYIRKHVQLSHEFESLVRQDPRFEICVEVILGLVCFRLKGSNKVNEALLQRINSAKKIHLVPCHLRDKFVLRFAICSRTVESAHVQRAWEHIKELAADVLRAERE", "test": "purified hDDC enzyme assay", "type": "biochemical", "procedure": "as §1"}},
  "note": "Values joined by “and” are separate entries in the source; they are usually repeats but may differ in a detail not shown here. Equal values may be shown once. Read-outs that look alike come from different tables or passages of the source.",
  "data": [
    {"molecule": "Cn1nc(Cc2ccccc2)nc2c(=O)n(C)c(=O)nc1-2", "note": "[CH004, 3-benzyl-1,6-dimethylpyrimido[5,4-e][1,2,4]triazine-5,7(1H,6H)-dione]", "values": [
      {"measurement": "IC50", "setting": "[1]; 150 nM purified CBS, 4 mM Hcys, 4 mM Cys, 50 mM Tris-HCl pH 8.6 (Table S2), read-out: IC50 hCBS WT", "value": "1.2 ± 0.05", "unit": "µM"},
      {"measurement": "IC50 fold to WT, hCBS WT", "setting": "[1]; Table S2", "value": 1},
      {"measurement": "IC50", "setting": "[1]; hCBS-413, 50 mM Hepes buffer pH 7.4 instead of Tris-HCl pH 8.6, read-out: IC50 on hCBS (Hepes; pH 7.4)", "value": "1.1 ± 0.17", "unit": "µM"},
      {"measurement": "IC50", "setting": "[1]; standard conditions, 50 mM Tris-HCl pH 8.6, read-out: IC50 on hCBS-413", "value": "~1 µM and 1 µM"},
      {"measurement": "IC50", "setting": "[2]; 24 h", "value": "~12", "unit": "µM"},
      {"measurement": "IC50", "setting": "[2]; Homo sapiens, Huh-7, 24 h", "value": "12.4 ± 1.6", "unit": "µM"},
      {"measurement": "IC50", "setting": "[3]; 24 h", "value": 4, "unit": "µM"},
      {"measurement": "IC50", "setting": "[3]; Homo sapiens, HCT-116, 24 h", "value": "4.1 ± 1.2", "unit": "µM"},
      {"measurement": "IC50", "setting": "[4]", "value": "25.8 ± 3.2", "unit": "µM"},
      {"measurement": "IC50", "setting": "[5]", "value": "7.2 ± 0.5", "unit": "µM"},
      {"measurement": "Fold selectivity hDDC vs hCBS-413", "setting": "[6]; IC50 of hDDC / IC50 of hCBS-413", "value": "> 400 (> 400) fold"},
      {"measurement": "IC50", "setting": "[6]; standard conditions", "value": "> 400", "unit": "µM"}
    ]}
  ]
}
